Source: BigSolDB 2.1

COC(=O)Nc1nc2ccc(Sc3ccccc3)cc2[nH]1
solubility (mole fraction)
Details | 283.15 K | 288.15 K | 293.15 K | 298.15 K | 303.15 K | 308.15 K | 313.15 K | 318.15 K | 323.15 K | 328.15 K
in DMF | 0.0397 | 0.0559 | 0.0731 | 0.0997 | 0.134 | 0.175 | 0.227 | 0.291 | 0.374 | 0.47
in ethanol | 0.000165 | 0.000219 | 0.000291 | 0.000378 | 0.000478 | 0.000598 | 0.000734 | 0.000918 | 0.00112 | 0.00137
in ethylene glycol | 0.000127 | 0.000171 | 0.000232 | 0.000305 | 0.0004 | 0.000513 | 0.000648 | 0.000812 | 0.00101 | 0.00126
in water | 3.69e-06 | 4.51e-06 | 5.71e-06 | 7.25e-06 | 9.03e-06 | 1.12e-05 | 1.38e-05 | 1.7e-05 | 2.07e-05 | 2.51e-05
